# Reference: patent US9487749B2 (priority 2009, dated 2016)
# Several values for one entry are separate records, joined by “and”; a condition that tells them apart may be missing. Identical values can stand only once. Entries after “also recorded” stand apart in the source; their conditions may differ.
# Columns and labels:
# [1] = test system: Herpes Simplex Virus type 1 (ATCC #VR-260); assay type: cell-based
# [2] = test system: ATCC strain 8739 Escherichia coli; assay: Bromcresol Purple colour change with E. coli; assay type: cell-based
# Procedure: Bromcresol Purple is an indicator dye that turns yellow in the presence of E. coli bacteria. […] All concentrations were plated out to 10^−7 dilutions to ascertain the log reduction.
# Flake OptiMSM was weighed out using a certified Mettler Toledo AG245 balance SN: 1115210833 and aliquoted for each concentration. […] Tubes were cooled to room temperature which was approximately 20° C. All tubes were then spiked with the same dilution of Escherichia coli that gave a level of colony forming units at 6.0×10^6/mL (6.8). The tubes were then incubated at 25° C. Daily observation for color change was performed during the first seven days. The tubes were mixed periodically to ensure that the OptiMSM was well equilibrated at all times. A positive and negative control was ascertained.
# Aspergillus niger = assay: USP <51> AET in cosmetic cream / cosmetic compositions, 28 days; assay type: cell-based; conditions: 10% MSM in cosmetic cream without preservative, 48 hrs-28 days
# From the text: (§1) The cosmetic cream matrix into which the MSM was incorporated was preservative free. An additional cream, with a preservative, was also spiked with E. coli and evaluated.
# Staphylococcus aureus = assay: as above; assay type: cell-based; conditions: for Log Reduction from Initial Microorganism Inoculum: 14 Days, 28 Days
# From the text: as §1
# Candida albicans = assay: as above; assay type: cell-based; conditions: for Microbial growth (count): 48 hrs-28 days; for Log Reduction from Initial Microorganism Inoculum: 14 Days, 28 Days
# From the text: as §1
# Escherichia coli = assay: as above; assay type: cell-based; conditions: for Microbial growth (count): 48 hrs-28 days; for Log Reduction from Initial Microorganism Inoculum: 14 Days, 28 Days
# From the text: as §1
# Pseudomonas aeruginosa = assay: as above; assay type: cell-based; conditions: for Microbial growth (count): 48 hrs-28 days; for Log Reduction from Initial Microorganism Inoculum: 14 Days, 28 Days
# From the text: as §1
# E. coli = E. coli log growth in MSM-lactose broth with or without DMSO; assay type: cell-based, Escherichia coli
# Procedure: Lactose broth, free of both NaCl and of proteins, was used as the media in this experiment. […] Each media composition was initially inoculated with 6.75×10^6 cfu/mL of E. coli. Cultures were incubated at 25° C. for seven days. Aliquots of each culture were taken after 24 hours of culturing and at the end of seven days in culture. Aliquots were serially diluted (with Modified Letheen diluent) and plated on trypto-soy agar plates.
# Bifidobacterium bifidum = assay: Growth of Bifidobacterium bifidum in MRS broth fortified with MSM (anaerobic); assay type: cell-based
# Procedure: Each organism (Lactobacillus rhamnosus, Lactobacillus acidophilus, and Bifidobacterium bifidum) was grown in MRS bacterial growth medium (broth) and plated on MRS agar at different time intervals. Results are expressed in colony forming units per milliliter (cfu/mL). […] All bacterial organisms were incubated at 35° C. +/−2° C. for the duration of the study. […] All preparations and plating were conducted at room temperature. […] Test samples were plated in triplicate at each test date and the averages are reported. Bifidobacterium bifidum, a common microbe used in probiotics, was also tested. All Bifidobacterium samples were incubated under anaerobic conditions.
# [3] = test system: normal flora found in the milks; assay: Growth of non-probiotic microorganisms in Acidophilus milk (standard plate counts); assay type: cell-based
# Procedure: 31, 2013. […] The Acidophilus milk was low fat (Darigold). […] This was performed to look at how MSM would affect the normal flora found in the milks. Day 0 was the day the samples were setup for the start of the study. The Acidophilus plus Bifidus milk started with a higher count at Day 0 than what is typically expected. This caused the end values to be elevated. The Acidophilus milk product at Day 0 was at expected values. The Acidophilus milk maintained adequate growth rates through out the study and were equivalent to typical growth rates seen in milk products.
# Bacillus coagulans = Bacillus coagulans growth in simulated gastric acid supplemented with MSM; assay type: cell-based; conditions: simulated gastric acid pH 1.2
# [4] = 10% MSM in preservative-free jojoba cosmetic cream
# [5] = 10% MSM, Preservative Free Cosmetic Composition #1
# [6] = 10% MSM, Preservative Free Cosmetic Composition #2
# [7] = 10% MSM in cosmetic cream without preservative
# [8] = 10% MSM in Preservative Free Cosmetic Composition #1, 48 hours after inoculation
# [9] = 10% MSM in Preservative Free Cosmetic Composition #1, 7 days after inoculation
structure (smiles),measurement,setting,value
"CS(C)(=O)=O [MSM, Methylsulfonylmethane]",Average TCID50,[1],3.17 log10 and 4.67 log10 and 4.33 log10 and 4.08 log10 and 4.83 log10 and 5.00 log10 and 5.42 log10
same,reduction of virus population,[1],more than 1.0 log10
same,Bromcresol Purple colour of the broth,"[2]; 5-7% MSM, Day one",color change of the broth to yellow
same,Bromcresol Purple colour of the broth,"[2]; 8% MSM, listed as order: Day one, Day three",slight clearing of color; also recorded: turning to the typical yellow color
same,Bromcresol Purple colour of the broth,"[2]; 9% MSM, Day 7",turning to a yellow color
same,Bromcresol Purple colour of the broth,"[2]; 10%-16% MSM, listed as order: Day 7, Day 30",No color change; also recorded: no signs of change
same,Microbial growth (count),Aspergillus niger; 48 hours after inoculation,8 × 10^3
same,Microbial growth (count),Aspergillus niger; 14 days after inoculation,6 × 10^3
same,Microbial growth (count),Aspergillus niger; 28 days after inoculation,5 × 10^2
same,Microbial growth (count),"Staphylococcus aureus; 10% MSM in cosmetic cream without preservative, 48 hrs-28 days",<10
same,Log Reduction from Initial Microorganism Inoculum,Staphylococcus aureus; [4],5.6 log
same,Log Reduction from Initial Microorganism Inoculum,Staphylococcus aureus; [5],5.7 log
same,Log Reduction from Initial Microorganism Inoculum,Staphylococcus aureus; [6],5.7 log
same,Microbial growth (count),"Candida albicans; 10% MSM in Preservative Free Cosmetic Composition #2, after 48 hours incubation",9.0 × 10^2
same,Microbial growth (count),"Candida albicans; 10% MSM in Preservative Free Cosmetic Composition #2, after 7 days incubation",<10
same,Microbial growth (count),Candida albicans; [7],<10
same,Log Reduction from Initial Microorganism Inoculum,Candida albicans; [4],4.3 log
same,Log Reduction from Initial Microorganism Inoculum,Candida albicans; [5],5.3 log
same,Log Reduction from Initial Microorganism Inoculum,Candida albicans; [6],5.3 log
same,Microbial growth (count),Escherichia coli; [8],5.4 × 10^4
same,Microbial growth (count),Escherichia coli; [9],<10
same,Microbial growth (count),Escherichia coli; [7],<10
same,Log Reduction from Initial Microorganism Inoculum,Escherichia coli; [4],5.7 log
same,Log Reduction from Initial Microorganism Inoculum,Escherichia coli; [5],5.8 log
same,Log Reduction from Initial Microorganism Inoculum,Escherichia coli; [6],5.8 log
same,Microbial growth (count),Pseudomonas aeruginosa; [8],7.3 × 10^3
same,Microbial growth (count),Pseudomonas aeruginosa; [9],<10
same,Microbial growth (count),Pseudomonas aeruginosa; [7],<10
same,Log Reduction from Initial Microorganism Inoculum,Pseudomonas aeruginosa; [4],5.3 log
same,Log Reduction from Initial Microorganism Inoculum,Pseudomonas aeruginosa; [5],5.8 log
same,Log Reduction from Initial Microorganism Inoculum,Pseudomonas aeruginosa; [6],5.8 log
same,Test Product Cytotoxicity,Vero cells (ATCC#CCL-81),00
same,reduction of bacterial growth,"E. coli; 11% MSM, 24 hours (maximum)",about 2.2 logs
same,reduction of bacterial growth,"E. coli; 16% MSM, 24 hours",about 1 log
same,log increase of Bifidobacterium,Bifidobacterium bifidum; 0.04% MSM,One
same,log higher than the 0% MSM control,"Bifidobacterium bifidum; 0.04% and 0.2% MSM samples, 48 hours",1 log
same,log increase of Bifidobacterium,Bifidobacterium bifidum; 0.2% MSM,2 log
same,growth of normal flora (standard plate counts),"[3]; 5.0% MSM, throughout the study",did not allow any significant growth
same,Growth of non-probiotic microorganisms in Acidophilus Milk,"[3]; A/B milk, […] MSM, Day 0",370 cfu per mL
same,Growth of non-probiotic microorganisms in Acidophilus Milk,"[3]; A/B milk, […] MSM, Day 3",480 cfu per mL
same,Growth of non-probiotic microorganisms in Acidophilus Milk,"[3]; A/B milk, […] MSM, Day 7",570 cfu per mL
same,Growth of non-probiotic microorganisms in Acidophilus Milk,"[3]; A/B milk, […] MSM, Day 14",1460 cfu per mL
same,Growth of non-probiotic microorganisms in Acidophilus Milk,"[3]; A/B milk, […] MSM, Day 21",3500 cfu per mL
same,Growth of non-probiotic microorganisms in Acidophilus Milk,"[3]; A/B milk, […] MSM, Day 28",110000 cfu per mL
same,Growth of non-probiotic microorganisms in Acidophilus Milk,"[3]; acidophilus milk, 0.50% MSM, Day 0",20 cfu per mL and 30 cfu per mL
same,Growth of non-probiotic microorganisms in Acidophilus Milk,"[3]; acidophilus milk, 0.50% MSM, Day 3",10 cfu per mL
same,Growth of non-probiotic microorganisms in Acidophilus Milk,"[3]; acidophilus milk, 0.50% MSM, Day 7",10 cfu per mL
same,Growth of non-probiotic microorganisms in Acidophilus Milk,"[3]; acidophilus milk, 0.50% MSM, Day 14",20 cfu per mL
same,Growth of non-probiotic microorganisms in Acidophilus Milk,"[3]; acidophilus milk, 0.50% MSM, Day 21",20 cfu per mL and 40 cfu per mL
same,Growth of non-probiotic microorganisms in Acidophilus Milk,"[3]; acidophilus milk, 5% MSM, Day 0",10 cfu per mL and 20 cfu per mL
same,Growth of non-probiotic microorganisms in Acidophilus Milk,"[3]; acidophilus milk, 5% MSM, Day 3",10 cfu per mL
same,Growth of non-probiotic microorganisms in Acidophilus Milk,"[3]; acidophilus milk, 5% MSM, Day 7",10 cfu per mL and 20 cfu per mL
same,Growth of non-probiotic microorganisms in Acidophilus Milk,"[3]; acidophilus milk, 5% MSM, Day 14",20 cfu per mL and 10 cfu per mL
same,Growth of non-probiotic microorganisms in Acidophilus Milk,"[3]; acidophilus milk, 5% MSM, Day 21",20 cfu per mL and 10 cfu per mL
same,Growth of non-probiotic microorganisms in Acidophilus Milk,"[3]; acidophilus milk, 5% MSM, Day 28",10 cfu per mL
same,Growth of non-probiotic microorganisms in Acidophilus Milk,"[3]; acidophilus milk, […] MSM, Day 0",10 cfu per mL
same,Growth of non-probiotic microorganisms in Acidophilus Milk,"[3]; acidophilus milk, […] MSM, Day 14",<10 cfu per mL
same,Log Growth of Bacillus coagulans average,"Bacillus coagulans; 5% MSM, hour 0",0.26 log
same,Log Growth of Bacillus coagulans in duplicate,"Bacillus coagulans; 5% MSM, hour 3",0 log
same,Log Growth of Bacillus coagulans average,"Bacillus coagulans; 5% MSM, hour 3",0 log
same,Log Growth of Bacillus coagulans in duplicate,"Bacillus coagulans; 5% MSM, hour 6",0 log
same,Log Growth of Bacillus coagulans average,"Bacillus coagulans; 5% MSM, hour 6",0 log
same,Log Growth of Bacillus coagulans in duplicate,"Bacillus coagulans; 5% MSM, hour 9",0 log
same,Log Growth of Bacillus coagulans average,"Bacillus coagulans; 5% MSM, hour 9",0 log
same,Log Growth of Bacillus coagulans in duplicate,"Bacillus coagulans; 5% MSM, hour 12",0 log
same,Log Growth of Bacillus coagulans average,"Bacillus coagulans; 5% MSM, hour 12",0 log
same,Log Growth of Bacillus coagulans average,"Bacillus coagulans; 5% MSM, hour 15",0.26 log
same,Log Growth of Bacillus coagulans in duplicate,"Bacillus coagulans; 5% MSM, hour 24",0 log
same,Log Growth of Bacillus coagulans average,"Bacillus coagulans; 5% MSM, hour 24",0 log
same,Log Growth of Bacillus coagulans in duplicate,"Bacillus coagulans; 5% MSM, hour 48",0 log
same,Log Growth of Bacillus coagulans average,"Bacillus coagulans; 5% MSM, hour 48",0 log
same,Log Growth of Bacillus coagulans in duplicate,"Bacillus coagulans; […] MSM, hour 0",0 log
same,Log Growth of Bacillus coagulans in duplicate,"Bacillus coagulans; […] MSM, hour 3",0 log
same,Log Growth of Bacillus coagulans in duplicate,"Bacillus coagulans; […] MSM, hour 9",0 log
same,Log Growth of Bacillus coagulans average,"Bacillus coagulans; […] MSM, hour 9",0 log
same,Log Growth of Bacillus coagulans in duplicate,"Bacillus coagulans; […] MSM, hour 12",0 log
same,Log Growth of Bacillus coagulans in duplicate,"Bacillus coagulans; […] MSM, hour 15",0 log
same,Log Growth of Bacillus coagulans average,"Bacillus coagulans; […] MSM, hour 15",0 log
same,Log Growth of Bacillus coagulans in duplicate,"Bacillus coagulans; […] MSM, hour 24",0 log
same,Log Growth of Bacillus coagulans average,"Bacillus coagulans; […] MSM, hour 24",0 log
same,Log Growth of Bacillus coagulans in duplicate,"Bacillus coagulans; […] MSM, hour 48",0 log
same,Log Growth of Bacillus coagulans average,"Bacillus coagulans; […] MSM, hour 48",0 log
